Experimental data from US20120214822A1 (ASTRAZENECA AB, priority 2007, published 2012).

Target: human active recombinant p38α-6His tagged (Homo sapiens, UniProt Q16539)
Assay: P38 Alpha Enzyme Assay (AlphaScreen, biotinylated-ATF2 substrate);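 also: 0.5 nM final p38α, reaction started with ATP and run 45 min at 37 °C, phospho-ATF2 read by antibody-based AlphaScreen, background wells quenched with EDTA before ATP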
Format: biochemical
Details: p38 alpha enzyme inhibition; means of replicate determinations; 4 h pre-incubation at 37° C.; SD of assay 0.2-0.3 log units

Chain of human active recombinant p38α-6His tagged (Q16539 whole entry): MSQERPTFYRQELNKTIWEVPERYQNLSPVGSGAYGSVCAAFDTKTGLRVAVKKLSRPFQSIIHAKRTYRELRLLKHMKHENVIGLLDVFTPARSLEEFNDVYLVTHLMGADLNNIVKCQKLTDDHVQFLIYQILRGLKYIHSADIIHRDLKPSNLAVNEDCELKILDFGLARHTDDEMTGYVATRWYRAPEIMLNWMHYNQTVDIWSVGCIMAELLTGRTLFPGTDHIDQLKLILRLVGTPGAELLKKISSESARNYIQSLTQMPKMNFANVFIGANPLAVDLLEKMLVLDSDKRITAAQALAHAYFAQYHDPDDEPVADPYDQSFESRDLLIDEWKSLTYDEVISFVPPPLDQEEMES

SMILES | pIC50
Cc1ccc(C(=O)NC2CC2)cc1-n1ccnc(NC(CN2CCCC2)c2ccccc2)c1=O (stereo not shown) [Example 34, N-Cyclopropyl-4-methyl-3-[2-oxo-3-[[1-phenyl-2-(1-pyrrolidinyl)ethyl]amino]-1(2H)-pyrazinyl]-benzamide] | 6.4
Cc1ccc(C(=O)NC2CC2)cc1-n1ccnc(NC(C)(C)c2ccccc2OCC2CCNCC2)c1=O [Example 214, N-Cyclopropyl-4-methyl-3-[3-[[1-methyl-1-[2-(4-piperidinylmethoxy)phenyl]ethyl]amino]-2-oxo-1(2H)-pyrazinyl]-benzamide] | 9.1
Cc1ccc(C(=O)NC2CC2)cc1-n1ccnc(N[C@@H](c2ccccc2)[C@@H](C)CN2CCSCC2)c1=O [Example 189, N-Cyclopropyl-4-methyl-3-[3-[[(1R,2S)-2-methyl-1-phenyl-3-(4-thiomorpholinyl)propyl]amino]-2-oxo-1(2H)-pyrazinyl]-benzamide] | 9.2
Cc1ccc(C(=O)NC2CC2)cc1-n1ccnc(NCc2cccc(C(=O)NC3CC3)c2)c1=O [Example 69, N-Cyclopropyl-3-[3-[[[3-[(cyclopropylamino)carbonyl]phenyl]methyl]amino]-2-oxo-1(2H)-pyrazinyl]-4-methyl-benzamide] | 6.2
COCCNCCOc1ccccc1C1(Nc2nccn(-c3cc(C(=O)NC4CC4)ccc3C)c2=O)CC1 [Example 231, N-Cyclopropyl-3-[3-[[1-[2-[2-[(2-methoxyethyl)amino]ethoxy]phenyl]cyclopropyl]amino]-2-oxo-1(2H)-pyrazinyl]-4-methyl-benzamide] | 9.9
Cc1ccccc1CCNc1nccn(-c2cc(C(=O)NC3CC3)ccc2C)c1=O [Example 72, N-Cyclopropyl-4-methyl-3-[3-[[2-(2-methylphenyl)ethyl]amino]-2-oxo-1(2H)-pyrazinyl]-benzamide] | 7.2
Cc1ccc(C(=O)NC2CC2)cc1-n1ccnc(N[C@@H](c2cccc3ccccc23)[C@@H](C)CO)c1=O [Example 137, N-Cyclopropyl-3-[3-[[(1R,2R)-3-hydroxy-2-methyl-1-(1-naphthalenyl)propyl]amino]-2-oxo-1(2H)-pyrazinyl]-4-methyl-benzamide] | 8.1
Cc1ccc(C(=O)NC2CC2)cc1-n1ccnc(NC2(c3ccccc3OCCNCCO)CCC2)c1=O [Example 270, N-Cyclopropyl-3-[3-[[1-[2-[2-[(2-hydroxyethyl)amino]ethoxy]phenyl]cyclobutyl]amino]-2-oxo-1(2H)-pyrazinyl]-4-methyl-benzamide] | 9.9
Cc1ccc(C(=O)NC2CC2)cc1-n1ccnc(NC(C)(C)c2ccccc2OCC2CCCNC2)c1=O (stereo not shown) [Example 218, N-Cyclopropyl-4-methyl-3-[3-[[1-methyl-1-[2-(3-piperidinylmethoxy)phenyl]ethyl]amino]-2-oxo-1(2H)-pyrazinyl]-benzamide] | 9.1
Cc1ccc(C(=O)NC2CC2)cc1-n1ccnc(NCc2ccc3c(c2)OCO3)c1=O [Example 32, 3-[3-[(1,3-Benzodioxol-5-ylmethyl)amino]-2-oxo-1(2H)-pyrazinyl]-N-cyclopropyl-4-methyl-benzamide] | 6.8
CNCCOc1ccccc1C1(Nc2nccn(-c3cc(C(=O)NC4CC4)c(F)cc3C)c2=O)CC1 [Example 319, N-Cyclopropyl-2-fluoro-4-methyl-5-{3-[(1-{2-[2-(methylamino)ethoxy]phenyl}cyclopropyl)amino]-2-oxopyrazin-1(2H)-yl}benzamide] | 8.1
Cc1ccc(C(=O)NC2CC2)cc1-n1ccnc(NCc2ccc(CN)cc2)c1=O [Example 125, 3-[3-[[[4-(Aminomethyl)phenyl]methyl]amino]-2-oxo-1(2H)-pyrazinyl]-N-cyclopropyl-4-methyl-benzamide] | 6.2
Cc1ccc(C(=O)NC2CC2)cc1-n1ccnc(NC(C)(C)c2ccccc2OC2CNC2)c1=O [Example 215, N-Cyclopropyl-4-methyl-3-[3-[[1-[2-(3-azetidinyloxy)phenyl]-1-methylethyl]amino]-2-oxo-1(2H)-pyrazinyl]-benzamide] | 9.6
